Source: patent US11110082B2, “Tyrosine kinase inhibitors” (Rigel Pharmaceuticals, Inc., priority 2016, dated 2021)

Target: T1, MerTK (Homo sapiens, UniProt Q12866)
T1 construct: Seed HUVECs (10K cells/well) in EBM-2 complete media; host or cells: HUVEC (primary human umbilical vein endothelial cells)
T1 sequence (Q12866 21-999): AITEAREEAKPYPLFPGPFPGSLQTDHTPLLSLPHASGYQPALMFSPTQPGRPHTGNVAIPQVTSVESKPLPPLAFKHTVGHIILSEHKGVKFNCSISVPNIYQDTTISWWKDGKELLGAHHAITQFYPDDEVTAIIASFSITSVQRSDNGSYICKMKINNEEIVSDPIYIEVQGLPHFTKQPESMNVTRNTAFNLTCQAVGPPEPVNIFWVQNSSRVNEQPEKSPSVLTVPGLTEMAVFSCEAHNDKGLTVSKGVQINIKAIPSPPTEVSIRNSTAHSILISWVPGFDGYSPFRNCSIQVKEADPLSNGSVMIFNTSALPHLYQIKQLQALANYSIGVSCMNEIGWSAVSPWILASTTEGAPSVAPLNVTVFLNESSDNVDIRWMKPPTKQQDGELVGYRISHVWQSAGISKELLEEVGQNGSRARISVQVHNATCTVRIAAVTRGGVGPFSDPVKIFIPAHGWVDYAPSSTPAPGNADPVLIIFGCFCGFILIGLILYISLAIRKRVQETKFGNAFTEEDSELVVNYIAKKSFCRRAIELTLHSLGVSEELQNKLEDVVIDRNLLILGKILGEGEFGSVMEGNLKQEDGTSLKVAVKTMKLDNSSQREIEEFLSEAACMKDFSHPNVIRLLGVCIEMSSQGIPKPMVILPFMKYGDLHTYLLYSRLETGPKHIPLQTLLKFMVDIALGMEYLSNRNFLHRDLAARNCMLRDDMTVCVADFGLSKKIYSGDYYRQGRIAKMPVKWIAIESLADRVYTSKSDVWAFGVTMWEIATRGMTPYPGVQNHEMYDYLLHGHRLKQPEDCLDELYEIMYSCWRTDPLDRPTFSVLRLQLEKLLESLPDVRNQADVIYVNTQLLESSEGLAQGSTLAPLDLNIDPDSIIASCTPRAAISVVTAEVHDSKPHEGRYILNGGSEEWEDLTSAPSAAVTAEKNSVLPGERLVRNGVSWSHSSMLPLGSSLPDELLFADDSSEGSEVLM
Assay: PAKT HTRF-HUVEC assay (pAkt Ser473 HTRF after anti-human MerTK-XL stimulation)
Assay type: cell-based
Details: HUVEC cells, 1 hour compound, stimulated with anti-human MerTK-XL 1 ug/mL for 10 minutes, read-out: inhibition of MerTK
Method in brief: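 Akt Ser473 phosphorylation measured by HTRF in lysates of serum-starved HUVECs. Cells received compound for 1 h at 37° C before a 10-min challenge with antibody-cross-linked anti-MerTK (1 ug/mL final); EC50 derived by curve fit.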

SMILES	EC50 [nM]
CCCCNc1ncc2c3ccc(CN4CCN(C)CC4)cc3c(=O)n([C@@H]3CC[C@@H](O)C3)c2n1 [Compound 235, 3-(butylamino)-5-((1R,3R)-3-hydroxycyclopentyl)-8-((4-methylpiperazin-1-yl)methyl)pyrimido[4,5-c]isoquinolin-6(5H)-one]	264
CCCCNc1ncc2c3ccc(CN4CCN(C)CC4)cc3c(=O)n([C@H]3CC[C@H](N(C)C)C3)c2n1 [Compound 236, 3-(butylamino)-5-((1S,3S)-3-(dimethylamino)cyclopentyl)-8-((4-methylpiperazin-1-yl)methyl)pyrimido[4,5-c]isoquinolin-6(5H)-one]	130
CCCCNc1ncc2c3ccc(CN4CCN(C)CC4)cc3c(=O)n([C@H]3CC[C@H](NCC(N)=O)C3)c2n1 [Compound 237, 2-(((1S,3S)-3-(3-(butylamino)-8-((4-methylpiperazin-1-yl)methyl)-6-oxopyrimido[4,5-c]isoquinolin-5(6H)-yl)cyclopentyl)amino)acetamide]	220
CCCCNc1ncc2c3ccc(CN4CCN(C)CC4)cc3c(=O)n([C@H]3CC[C@H](NCCO)C3)c2n1 [Compound 238, 3-(butylamino)-5-((1S,3S)-3-((2-hydroxyethyl)amino)cyclopentyl)-8-((4-methylpiperazin-1-yl)methyl)pyrimido[4,5-c]isoquinolin-6(5H)-one]	160
CCCCNc1ncc2c3ccc(CN4CCN(C)CC4)cc3c(=O)n([C@H]3CC[C@H](NC(=N)N)C3)c2n1 [Compound 239, 1-((1S,3 S)-3-(3-(butylamino)-8-((4-methylpiperazin-1-yl)methyl)-6-oxopyrimido[4,5-c]isoquinolin-5(6H)-yl)cyclopentyl)guanidine]	947
